Laboratory results reported in article PMC10606834, “Is the Neuropeptide PEN a Ligand of GPR83?” (International Journal of Molecular Sciences, 2023).

Experiments:
[1] = tested on: GPR83 and GPR83del, with or without HA tag (HEK293 cells; wild-type HEK293 as comparison); test: Competitive radioligand binding assay, GPR83; design: species or system human
Text: One of the most proven methods for quantitatively analyzing the interaction of biomolecules is the competitive radioligand binding assay. […] To safeguard against possible interference of the added Tyr with ligand–receptor binding, two peptides were created and are as follows: one with the Tyr on the aminoterminal end (Tyr-PEN), and the other with Tyr added on the carboxyterminus (PEN-Tyr). Radiolabeled ^125I-PEN-Tyr and ^125I-Tyr-PEN were then used on wild-type HEK293 cells and HEK293 cells expressing various forms of GPR83 (full-length or deletion variant, with or without HA tag) in competition with different concentrations of natural PEN or Tyr-PEN, ranging from 1 pM to 1 µM.
Figure 5 HEK293 wild-type cells and HEK293 cells overexpressing various forms of GPR83 were used in radioligand binding assays with two different radioactively labeled PEN peptides: [^125I]-Tyr-PEN or [^125I]-PEN-Tyr. (A) Radioligand [^125I]-PEN-Tyr in competition with unlabeled wild-type PEN. (B) Radioligand [^125I]-Tyr-PEN in competition with unlabeled wild-type PEN. (C) Radioligand [^125I]-PEN-Tyr in competition with unlabeled wild-type PEN. (D) Radioligand [^125I]-Tyr-PEN in competition with Tyr-PEN. […]
Two variants of human PENs were utilized for radioiodination in this study: one with a tyrosine added at the aminoterminal end (Tyr-PEN: […]-NH2), and one with an additional tyrosine attached to the carboxyterminal end (PEN-Tyr: […]-NH2). Both were labelled with ^125I using the chloramine-T method. Chloramine-T and sodium metabisulfite solutions were freshly prepared in water. For labelling, 10 µL of peptide (stock 1 mM) with 15 µL of sodium phosphate buffer (0.5 M, pH 7.6) was mixed with 37 MBq carrier-free Na^125I (NEZ033L010MC, Perkin Elmer, Waltham, MA, USA). A 4 μL volume of chloramine T (1 mg/mL) was added to start the reaction, and after 30 s, 4 μL sodium metabisulfite (2 mg/mL) was added to stop the iodination. The labeled radioactive peptide was separated from unlabeled peptide with HPLC purification (Agilent ZORBAX 300 Extend-C18 column) using a gradient from 20–50% acetonitrile (+0.1% TFA) against water (+0.1% TFA) for 20 min. To determine the retention time of the radioactive peptide, 1–2 µL of the reaction mixture was analyzed before the purification run. The fraction containing the radiolabeled peptide peak was then collected, diluted with binding buffer to prevent radioautolysis, aliquoted, and stored at −80 °C.
4.10. Radioligand Binding Assay
For competitive radioligand binding assay, approximately 50,000 cells/well were seeded in a 96-well plate incubated overnight at 37 °C. Next day, cells were incubated in binding buffer (50 mM HEPES pH 7.4, 5 mM MgCl2, 1 mM CaCl2, 0.5% BSA, cOmplete protease inhibitors) containing 100,000 counts per minute of ^125I-labelled peptide, with increasing concentrations of unlabeled peptide. After 2 h of incubation, cells were washed for 2–3 times with ice-cold washing buffer (50 mM Tris-HCl, pH 7.4, 125 mM NaCl, 0.05% BSA) and lysed with 1 N NaOH (80 µL/well). The lysed cells were transferred to vials and measured in a gamma counter (Wallac 1470 Wizard, Perkin Elmer, Waltham, MA, USA). Obtained cpm values were plotted with GraphPad Prism 7, and the data were fitted using nonlinear regression (one site—fit Ki, one site—fit logIC50).

[2] = tested on: ERK1/2 phosphorylation in HEK293 cells overexpressing GPR83 or GPR83del; test: ERK1/2 phosphorylation (immunoblot), GPR83 cells; type: cell-based, human
Text: Apart from G protein-mediated second messenger signaling via Ca^2+ and cAMP, GPCR stimulation may also lead to activation of β-arrestin and phosphorylation of extracellular signal-regulated kinases 1/2 (ERK1/2). Immunoblot analysis was employed to investigate ligand-dependent phosphorylation of ERK1/2 in HEK293 cells overexpressing GPR83 or the deletion variant GPR83del as well as in wild-type HEK293 cells.
Figure 4 Ligand-dependent phosphorylation of ERK1/2 and β-arrestin (TANGO) assay. (A) Immunoblot detection of phosphorylated (upper blot) and total (lower blot) ERK1/2 in lysates of HEK293 wild-type cells and in HEK293 cells overexpressing GPR83 or GPR83del. (B) Quantification (mean ± SD of n = 2 independent experiments) of chemiluminescent readout of the immunoblots shown in (A). (C) TANGO assay for ligand-induced β-arrestin activity in HTLA cells overexpressing GPR83 (relative light units, RLU). (D) TANGO assay for ligand-induced β-arrestin activity in HTLA cells overexpressing bradykinin receptor BDKBR2.
4.7. ERK1/2 Phosphorylation Assay
Effects of GPCR ligands on MAPK signaling were assessed with Western blot analysis of lysates from stimulated cells. The ERK1/2 activation assay was performed as described before. Briefly, 50,000 cells per well were seeded onto adherent 6-well plates and cultured until cells were 80% confluent. After incubation with ligands (10 µM PEN #1 and 100 ng/mL EGF or 200 nM PMA in 0.1% FCS/DMEM) for 15 min, cells were lysed using 200 µL/well cell lysis buffer (100 mM Tris-HCl pH 8.8, 1% SDS) and protease inhibitors (cOmplete, Roche, Basel, Switzerland) on ice for one hour. Immunolabeling was realized using the rabbit monoclonal primary antibody anti-phospho-ERK1/2 Thr^202/Tyr^204 (#4370, Cell Signaling Technologies, Danvers, MA, USA, 1:2000), or anti-total ERK1/2 (#05-1152; Millipore, Burlington, VT, USA; 1:2000), respectively. Blots were analyzed using densitometric quantification using Image Lab Software v4.1 (Bio-Rad).

Which results are given for “AADHDVGSELPPEGVLGALLRV [PEN, batch #1 synthesized, batch #2 purchased from Phoenix Pharmaceuticals]”?
concentration-dependent displacement of radioligand ([1]; unlabeled peptide 1 pM to 1 µM versus 125I-PEN-Tyr or 125I-Tyr-PEN, HEK293 wild-type and GPR83 / GPR83del with or without HA tag, pH 7.4, 2 h): neither of these different assay conditions led to a PEN-GPR83 binding signal above background or a concentration-dependent displacement of the radioligand; interaction with GPR83 in radioligand binding assay ([1]; up to four GPR83-overexpressing cell clones, two radiolabeled PEN variants, whole cells): no interaction could be detected between PEN and GPR83; phosphorylation of ERK1/2 ([2]; 10 µM PEN #1, 100 ng/mL EGF or 200 nM PMA, 15 min, HEK293 overexpressing GPR83 or GPR83del as well as wild-type HEK293, n = 2 independent experiments): substantially induced phosphorylation of ERK1/2; phosphorylation of ERK1/2, GPR83 or GPR83del cells versus wild-type ([2]; 10 µM PEN #1, 15 min, n = 2): equally strong ERK1/2 phosphorylation in wild-type HEK293 cells as well as in HEK293 cells overexpressing GPR83 or GPR83del
